Measurements taken from patent US20220370553A1, “PREBIOTIC-INDUCED ANTI-TUMOR IMMUNITY” (Sanford Burnham Prebys Medical Discovery Institute, priority 2019, published 2022).

Assays:
[1] = tested on: serum cytokines and chemokines; assay: Serum cytokine and chemokine detection (LEGENDplex); assay type: in vivo, mice
Description: Graphs show the mean±s.e.m. *P<0.05, ****P<0.0001 by two-tailed t-test or Mann-Whitney U test.
Serum cytokine and chemokine detection. Cytokines and chemokines in the sera of naïve or tumor-bearing mice treated with or without mucin were quantified using the LEGENDplex™ mouse inflammation panel and mouse proinflammatory chemokine panel (BioLegend), respectively. All data were collected on an LSRFortessa (BD Biosciences) and analyzed using LEGENDplex™ software (BioLegend).
Levels of circulating cytokines and chemokines were quantified in mucin-treated mice both before and after tumor inoculation.

fecal microbiota = assay: 16S sequencing of fecal microbiota, MC-38 colon cancer model; assay type: in vivo, C57BL/6 mice
Procedure: (§1) Bacterial DNA extraction and 16S library preparation. […] Mouse fecal pellets were frozen on dry ice, and stored at −80° C. Bacterial DNA was extracted using the QIAmp Fast DNA Stool Mini Kit (Qiagen). To ensure efficient cell lysis, a 5-min bead-beating step using a Mini-Beadbeater-16 was included (Biospec Products, OK, USA). Library preparation for the Illumina MiSeq platform was performed by amplification of the V3-V4 region of the bacterial 16S ribosomal DNA gene using
(§2) C. Adapter and barcode sequences for dual indices were used as described by Illumina. PCR clean up steps were performed with QIAquick 96-PCR Clean up kit (Qiagen, Germany), and library quantification was performed using a KAPA Library Quantification Kit for Illumina platforms (KAPA Biosystems, MA, USA). An Experion Automated Gel Electrophoresis System (Bio-Rad, CA, USA) was used to measure the DNA concentration and purity of the pooled libraries. The 16S libraries were sequenced at Novagene (Beijing, China) and the SBP sequencing Core.
(§3) 16S sequencing data processing. The original FASTQ files from Illumina 250 basepair paired-end sequencing of the samples were processed using a novel 16S amplicon sequencing pipeline HiMap (http://github.com/taolonglab/himap; BioRxiv 565572). The output of HiMap is Operational Strain Unit (OSU) which contains one or more bacterial strains that best match the 16S sequence and cannot be further distinguished. The percentage similarity between the 16S sequence and the aligned region of 16S rRNA genes of the strains in the OSU is indicated. OSUs mapped to the same strains are grouped together (adding read counts) if percentage similarities are within 3%. Read counts are converted into relative abundance as described in HiMap. Log 10-transformed relative abundances were used for comparisons between samples under different experimental conditions.
The effects of inulin on the microbiota were evaluated in a colon cancer model. […] MC-38 mouse colorectal cancer cells (1×10^6) were inoculated, and diets were continued after inoculation.
(§4) P-values were calculated using paired one-tail Wilcoxon rank sum test.
as §4

[2] = tested on: MC-38 mouse colorectal cancer cells; assay: Flow cytometry of tumor-infiltrating immune cells in MC-38 tumors; assay type: in vivo, C57BL/6 mice
Procedure: Tumor digestion. Tumors were excised, minced, and digested with 1 mg/ml collagenase D (Roche) and 100 μg/ml DNase I (Sigma) at 37° C. for 1 h. Digests were then passed through a 70-μm cell strainer to generate a single-cell suspension. The cells were washed twice with PBS containing 2 mM EDTA, and then stained for flow cytometry.
Flow cytometry. Tumor-derived single-cell suspensions were washed twice with FACS staining buffer, fixed for 15 min with 1% formaldehyde in PBS, washed twice, and resuspended in FACS staining buffer. For intracellular cytokine staining, cells were resuspended in complete RPMI-1640 (containing 10 mM HEPES, 1% non-essential amino acids and L-glutamine, 1 mM sodium pyruvate, 10% heat-inactivated fetal bovine serum (FBS), and antibiotics) supplemented with 50 U/mL IL-2 (NCI), […] brefeldin A (BFA, Sigma), and incubated with phorbol myristate acetate (10 ng/ml) and ionomycin (0.5 μg/ml) at 37° C. The cells were then fixed and permeabilized using a Cytofix/Cytoperm Kit (BD Biosciences) before staining. Antibodies to the following proteins were used: CD45.2 (104), CD8a (53-6.7), CD4 (GK1.5), CD44 (IM7), TNF-α (MP6-XT22), IFN-γ (XMG1.2), CD11c (N418), CD11b (M1/70), MHC class II (M5/114.15.2), PDCA (129c1), and B220 (RA3-6B2) from BioLegend, and antibodies to IL-2 (JES6-5H4) and MHC class I (AF6-88.5.5.3) from eBioscience. All data were collected on an LSRFortessa (BD Biosciences) and analyzed using FlowJo Software (Tree Star).
MC-38 mouse colorectal cancer cells (1×10^6) were inoculated, and diets were continued after inoculation.

gut microbiota = assay type: in vivo, C57BL/6 mice; conditions: in the absence of MEKi
Procedure: as §1, §2, §3

[3] = B: 14 days after mucin feeding, A (prior to feeding) 0.001, p A vs B 0.001
[4] = C: 20 days post-tumor cell inoculation with mucin feeding
[5] = C: 20 days post-tumor cell inoculation with mucin feeding, p B vs C 0.006
[6] = C: 20 days post-tumor cell inoculation with mucin feeding, p B vs C 0.007
[7] = C: 20 days post-tumor cell inoculation with mucin feeding, p B vs C 0.011

Substance: mucin
- serum levels of IL-6, IL-1a, IL-10, IL-17A and IL-23 ([1]; following tumor inoculation (10 days), compared with control): reduced levels
- serum levels of IL-1a and CXCL13 ([1]; mucin feeding for two weeks, prior to tumor inoculation): Higher levels
- serum levels of chemokines CXCL1 and CXCL13 ([1]; tumor-inoculated mice (10 days), compared with control): Lower serum levels
- Abundance of phylotype group Clostridium cellulolyticum (93) (fecal microbiota; [3]): 0.055
- Abundance of phylotype group Dubosiella newyorkensis (93) (fecal microbiota; [3]): 0.044
- Abundance of phylotype group Staphylococcus saprophyticus (100) (fecal microbiota; B: 14 days after mucin feeding, A (prior to feeding) 0.001, p A vs B 0.005): 0.057
- Abundance of phylotype group Corynebacterium ammoniagenes (99) (fecal microbiota; B: 14 days after mucin feeding, A (prior to feeding) 0.001, p A vs B 0.006): 0.054
- Abundance of phylotype group Olsenella profusa (92) (fecal microbiota; B: 14 days after mucin feeding, A (prior to feeding) 0.001, p A vs B 0.023): 0.118
- Abundance of phylotype group Christensenella timonensis (88) / Anaerotruncus colihominis (88) (fecal microbiota; B: 14 days after mucin feeding, A (prior to feeding) 0.001, p A vs B 0.025): 0.010
- Abundance of phylotype group Gracilibacter thermotolerans (89) / Christensenella massiliensis (88) (fecal microbiota; B: 14 days after mucin feeding, A (prior to feeding) 0.001, p A vs B 0.036): 0.006
- Abundance of phylotype group Bifidobacterium pseudolongum (90) (fecal microbiota; B: 14 days after mucin feeding, A (prior to feeding) 0.001, p A vs B 0.049): 0.025
- Abundance of phylotype group Ruminococcus lactaris (97) / Clostridium oroticum (97) (fecal microbiota; B: 14 days after mucin feeding, A (prior to feeding) 0.004, p A vs B 0.0005): 0.062
- Abundance of phylotype group Clostridium hylemonae (98) / Muricomes intestini (98) / Clostridium oroticum (98) XIVa (fecal microbiota; B: 14 days after mucin feeding, A (prior to feeding) 0.005, p A vs B 0.040): 0.029
- Abundance of phylotype group Desulfovibrio desulfuricans (95) (fecal microbiota; B: 14 days after mucin feeding, A (prior to feeding) 0.008, p A vs B 0.035): 0.338
- Abundance of phylotype group Clostridium cellulovorans (89) / Christensenella massiliensis (88) (fecal microbiota; B: 14 days after mucin feeding, A (prior to feeding) 0.009, p A vs B 0.048): 0.045
- Abundance of phylotype group Eubacterium dolichum (93) (fecal microbiota; B: 14 days after mucin feeding, A (prior to feeding) 0.011, p A vs B 0.025): 0.106
- Abundance of phylotype group Clostridium viride (96) / Intestinimonas butyriciproducens (96) / Pseudoflavonifractor capillosus (95) (fecal microbiota; B: 14 days after mucin feeding, A (prior to feeding) 0.013, p A vs B 0.001): 0.062
- Abundance of phylotype group Roseburia faecis (95) (fecal microbiota; B: 14 days after mucin feeding, A (prior to feeding) 0.013, p A vs B 0.009): 0.124
- Abundance of phylotype group Ihubacter massiliensis (98) / E. timonensis (96) (fecal microbiota; B: 14 days after mucin feeding, A (prior to feeding) 0.014, p A vs B 0.002): 0.146
- Abundance of phylotype group Clostridium xylanolyticum (98) / C. aerotolerans (97) (fecal microbiota; B: 14 days after mucin feeding, A (prior to feeding) 0.014, p A vs B 0.008): 0.088
- Abundance of phylotype group Harryflintia acetispora (95) / Anaerotruncus colihominis (93) (fecal microbiota; B: 14 days after mucin feeding, A (prior to feeding) 0.017, p A vs B 0.043): 0.040
- Abundance of phylotype group Staphylococcus lentus (100) (fecal microbiota; B: 14 days after mucin feeding, A (prior to feeding) 0.024, p A vs B 0.030): 0.349
- Abundance of phylotype group Roseburia intestinalis (95) / Ruminococcus faecis (95) / E. rectale (95) (fecal microbiota; B: 14 days after mucin feeding, A (prior to feeding) 0.029, p A vs B 0.003): 0.113
- Abundance of phylotype group Eubacterium dolichum (92) (fecal microbiota; B: 14 days after mucin feeding, A (prior to feeding) 0.045, p A vs B 0.00003): 0.291
- Abundance of phylotype group Murimonas intestini (97) / Clostridium celerecrescens (96) XIVa (fecal microbiota; B: 14 days after mucin feeding, A (prior to feeding) 0.104, p A vs B 0.009): 0.300
- Abundance of phylotype group Anaerotaenia torta (96) / C. xylanolyticum (95) (fecal microbiota; B: 14 days after mucin feeding, A (prior to feeding) 0.168, p A vs B 1 × 10^−6): 0.421
- Abundance of phylotype group Olsenella profusa (95) (fecal microbiota; B: 14 days after mucin feeding, A (prior to feeding) 0.180, p A vs B 0.004): 4.883
- Abundance of phylotype group Clostridium cocleatum (99) (fecal microbiota; B: 14 days after mucin feeding, A (prior to feeding) 0.253, p A vs B 0.011): 7.822
- Abundance of phylotype group Muribaculum intesinale (92) (fecal microbiota; B: 14 days after mucin feeding, A (prior to feeding) 6.008, p A vs B 4 × 10^−7): 17.058
- Abundance of phylotype group Bifidobacterium pseudolongum (90) (fecal microbiota; [4]): 0.006
- Abundance of phylotype group Clostridium cellulolyticum (93) (fecal microbiota; [4]): 0.055
- Abundance of phylotype group Clostridium cellulovorans (89) / Christensenella massiliensis (88) (fecal microbiota; [4]): 0.038
- Abundance of phylotype group Clostridium cocleatum (99) (fecal microbiota; [4]): 3.099
- Abundance of phylotype group Clostridium hylemonae (98) / Muricomes intestini (98) / Clostridium oroticum (98) XIVa (fecal microbiota; [4]): 0.030
- Abundance of phylotype group Desulfovibrio desulfuricans (95) (fecal microbiota; [4]): 0.533
- Abundance of phylotype group Eubacterium dolichum (92) (fecal microbiota; [4]): 0.462
- Abundance of phylotype group Eubacterium dolichum (93) (fecal microbiota; [4]): 0.279
- Abundance of phylotype group Gracilibacter thermotolerans (89) / Christensenella massiliensis (88) (fecal microbiota; [4]): 0.020
- Abundance of phylotype group Murimonas intestini (97) / Clostridium celerecrescens (96) XIVa (fecal microbiota; [4]): 0.462
- Abundance of phylotype group Olsenella profusa (92) (fecal microbiota; [4]): 0.068
- Abundance of phylotype group Olsenella profusa (95) (fecal microbiota; [4]): 3.256
- Abundance of phylotype group Ruminococcus lactaris (97) / Clostridium oroticum (97) (fecal microbiota; [4]): 0.060
- Abundance of phylotype group Dubosiella newyorkensis (93) (fecal microbiota; C: 20 days post-tumor cell inoculation with mucin feeding, p B vs C 0.001): 0.005
- Abundance of phylotype group Corynebacterium ammoniagenes (99) (fecal microbiota; [5]): 0.002
- Abundance of phylotype group Harryflintia acetispora (95) / Anaerotruncus colihominis (93) (fecal microbiota; [5]): 0.172
- Abundance of phylotype group Clostridium viride (96) / Intestinimonas butyriciproducens (96) / Pseudoflavonifractor capillosus (95) (fecal microbiota; [6]): 0.113
- Abundance of phylotype group Muribaculum intesinale (92) (fecal microbiota; [6]): 11.857
- Abundance of phylotype group Roseburia intestinalis (95) / Ruminococcus faecis (95) / E. rectale (95) (fecal microbiota; [6]): 0.407
- Abundance of phylotype group Roseburia faecis (95) (fecal microbiota; [7]): 0.555
- Abundance of phylotype group Staphylococcus saprophyticus (100) (fecal microbiota; [7]): 0.006
- Abundance of phylotype group Christensenella timonensis (88) / Anaerotruncus colihominis (88) (fecal microbiota; C: 20 days post-tumor cell inoculation with mucin feeding, p B vs C 0.028): 0.027
- Abundance of phylotype group Staphylococcus lentus (100) (fecal microbiota; C: 20 days post-tumor cell inoculation with mucin feeding, p B vs C 0.034): 0.033
- CD4+ or CD8+ T cells, CD45+ cells, cytokine production, DCs and DC subsets in tumors [2]: No differences
- phylotype group related to Parasutterella excrementihominis (gut microbiota): not observed
- taxa increased in relative abundance (gut microbiota): primarily increased the relative abundance of taxa mapped in or near Clostridium cluster XIVa
